Each structure is given as a SMILES string.

One test has as its target CK1δ (Homo sapiens, UniProt P48730). Briefly: CK1δ kinase assay (Caliper LABCHIP electrophoretic separation of fluoresceinated peptide substrate and product). It is filed as biochemical. As to conditions: 200 pM CK1δ, 50 μM ATP, 1.5 μM peptide substrate, 22 hours at room temperature. How it is done: (§1) CK1ϵ and CK1δ Kinase Assays
(§2) The kinase assay was performed in V-bottom 384-well plates.
(§3) The reaction was incubated at room temperature for 22 hours and terminated by adding 45 μl of 35 mM EDTA to each sample. The reaction mixture was analyzed on the Caliper LABCHIP®3000 (Caliper, Hopkinton, Mass.) by electrophoretic separation of the unphosphorylated substrate and phosphorylated product. […] Compounds were dissolved at 10 mM in dimethylsulfoxide (DMSO) and evaluated at eleven concentrations. IC50 values were derived by non-linear regression analysis.

A further test concerns the target CK1ϵ (Homo sapiens, UniProt P49674). Put plainly: CK1ϵ kinase assay (Caliper LABCHIP electrophoretic separation of fluoresceinated peptide substrate and product). It is filed as biochemical. Conditions: 200 pM CK1ϵ, 50 μM ATP, 1.5 μM peptide substrate, 22 hours at room temperature; read-out: CK1ε (IC50). How it is done:
as §1, §2, §3

Chain of CK1ϵ (P49674 whole entry): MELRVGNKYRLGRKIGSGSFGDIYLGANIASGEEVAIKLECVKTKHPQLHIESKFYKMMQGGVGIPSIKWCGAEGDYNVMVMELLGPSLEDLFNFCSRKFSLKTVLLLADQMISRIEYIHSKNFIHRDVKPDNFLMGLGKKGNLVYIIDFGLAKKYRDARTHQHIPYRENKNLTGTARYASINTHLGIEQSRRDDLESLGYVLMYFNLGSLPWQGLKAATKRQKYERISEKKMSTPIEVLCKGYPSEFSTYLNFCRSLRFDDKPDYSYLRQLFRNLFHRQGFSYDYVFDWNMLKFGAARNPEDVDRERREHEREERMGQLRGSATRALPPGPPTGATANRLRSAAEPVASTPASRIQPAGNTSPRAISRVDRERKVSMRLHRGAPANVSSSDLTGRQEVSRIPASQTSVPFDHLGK
Chain of CK1δ (P48730 whole entry): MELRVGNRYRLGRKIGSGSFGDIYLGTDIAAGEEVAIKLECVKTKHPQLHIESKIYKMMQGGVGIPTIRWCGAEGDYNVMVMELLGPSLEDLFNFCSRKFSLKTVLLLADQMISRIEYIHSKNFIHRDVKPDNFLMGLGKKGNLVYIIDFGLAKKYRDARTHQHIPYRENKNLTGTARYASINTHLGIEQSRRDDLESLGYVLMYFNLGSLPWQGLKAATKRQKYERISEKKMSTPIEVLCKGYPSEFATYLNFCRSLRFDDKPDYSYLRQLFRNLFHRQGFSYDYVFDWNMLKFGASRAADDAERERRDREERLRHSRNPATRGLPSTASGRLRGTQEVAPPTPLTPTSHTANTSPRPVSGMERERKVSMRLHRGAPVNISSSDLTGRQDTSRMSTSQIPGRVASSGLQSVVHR

Consider `O=C(Nc1cn2nc(-c3c(-c4ccc(F)cc4)nn4c3CNCC4)ccc2n1)c1cc(F)nc(F)c1` [Example 5, 2,6-Difluoro-N-(6-(2-(4-fluorophenyl)-4,5,6,7-tetrahydropyrazolo[1,5-a]pyrazin-3-yl)imidazo[1,2-b]pyridazin-2-yl)isonicotinamide], for which the IC50 (commonly the point on the concentration scale where inhibition reaches its midpoint) against CK1δ came to 0.4 nM; on CK1ϵ, 4.7 nM.

Regarding `O=C(Nc1cn2nc(-c3c(-c4ccc(F)cc4)nn4c3COCC4)ccc2n1)c1ccnc(-c2cccnc2)c1` [Example 57, N-(6-(2-(4-Fluorophenyl)-6,7-dihydro-4H-pyrazolo[5,1-c][1,4]oxazin-3-yl)imidazo[1,2-b]pyridazin-2-yl)-[2,3′-bipyridine]-4-carboxamide], the IC50 on CK1δ was 0.2 nM; on CK1ϵ, 1.7 nM.

For the compound `O=C(Nc1cn2nc(-c3c(-c4ccc(F)cc4)nn4c3CN(C(=O)NCCC(F)(F)F)CC4)ccc2n1)c1ccnc(F)c1` [Example 50, 3-(2-(2-Fluoroisonicotinamido)imidazo[1,2-b]pyridazin-6-yl)-2-(4-fluorophenyl)-N-(3,3,3-trifluoropropyl)-6,7-dihydropyrazolo[1,5-a] pyrazine-5(4H)-carboxamide], the IC50 worked out at 0.7 nM against CK1δ and 9.3 nM at CK1ϵ.

Consider `O=C(Nc1cn2nc(-c3c(-c4ccc(F)cc4)noc3C3CCOCC3)ccc2n1)c1ccnc(F)c1` [Example 69, 2-Fluoro-N-(6-(3-(4-fluorophenyl)-5-(tetrahydro-2H-pyran-4-yl)isoxazol-4-yl)imidazo[1,2-b]pyridazin-2-yl)isonicotinamide], for which the results for the IC50 at CK1δ and on CK1ϵ were 1.4 nM and 27.9 nM, respectively.

Turning to `O=C(Nc1cn2nc(-c3c(-c4ccc(F)cc4)nn4c3CCC4)ccc2n1)c1ccccc1` [Example 68, N-(6-(2-(4-Fluorophenyl)-5,6-dihydro-4H-pyrrolo[1,2-b]pyrazol-3-yl)imidazo[1,2-b]pyridazin-2-yl)benzamide], the IC50 on CK1δ stood at 0.3 nM; at CK1ϵ, 3.6 nM.

With `Cc1nc(-c2ccncc2)sc1C(=O)Nc1cn2nc(-c3c(-c4ccc(F)cc4)nn4c3CNCC4)ccc2n1` [Example 2, N-(6-(2-(4-Fluorophenyl)-4,5,6,7-tetrahydropyrazolo[1,5-a]pyrazin-3-yl)imidazo[1,2-b]pyridazin-2-yl)-4-methyl-2-(pyridin-4-yl)thiazole-5-carboxamide], the results for the half-maximal inhibitory concentration (IC50) against CK1δ and on CK1ϵ were 0.2 nM and 2.4 nM, respectively.

In the case of `CC(C)NC(=O)N1CCn2nc(-c3ccc(F)cc3)c(-c3ccc4nc(NC(=O)c5ccnc(F)c5)cn4n3)c2C1` [Example 42, 3-(2-(2-Fluoroisonicotinamido)imidazo[1,2-b]pyridazin-6-yl)-2-(4-fluorophenyl)-N-isopropyl-6,7-dihydropyrazolo[1,5-a] pyrazine-5(4H)-carboxamide], the IC50 against CK1δ is 0.8 nM; on CK1ϵ, 9.5 nM.

For `O=C(Nc1cn2nc(-c3c(-c4ccc(F)cc4)nn4c3CN(C(=O)c3ccccc3F)CC4)ccc2n1)c1ccnc(F)c1` [Example 23, 2-Fluoro-N-(6-(5-(2-fluorobenzoyl)-2-(4-fluorophenyl)-4,5,6,7-tetrahydropyrazolo[1,5-a]pyrazin-3-yl)imidazo[1,2-b]pyridazin-2-yl) isonicotinamide], the results for the half-maximal inhibitory concentration (IC50) on CK1δ and on CK1ϵ were 0.1 nM and 0.4 nM, respectively.

Take `O=C(Nc1cn2nc(-c3c(-c4ccc(F)cc4)nn4c3CNCC4)ccc2n1)c1ccnc(N2CCOCC2)c1` [Example 4, N-(6-(2-(4-Fluorophenyl)-4,5,6,7-tetrahydropyrazolo[1,5-a]pyrazin-3-yl)imidazo[1,2-b]pyridazin-2-yl)-2-morpholinoisonicotinamide]: the half-maximal inhibitory concentration (IC50) on CK1δ came out at 0.3 nM; at CK1ϵ, 1.3 nM.

As for `Cn1cnc(S(=O)(=O)N2CCn3nc(-c4ccc(F)cc4)c(-c4ccc5nc(NC(=O)c6ccnc(F)c6)cn5n4)c3C2)c1` [Example 39, 2-Fluoro-N-(6-(2-(4-fluorophenyl)-5-((1-methyl-1H-imidazol-4-yl)sulfonyl)-4,5,6,7-tetrahydropyrazolo [1,5-a]pyrazin-3-yl)imidazo [1,2-b]pyridazin-2-yl) isonicotinamide], the 50% inhibitory concentration (IC50) came to 0.4 nM against CK1δ and 4.6 nM on CK1ϵ.

On to `O=C(Nc1cn2nc(-c3c(-c4ccc(F)cc4)nn4c3CCCC4)ccc2n1)c1cc(F)nc(F)c1` [Example 64, 2,6-Difluoro-N-(6-(2-(4-fluorophenyl)-4,5,6,7-tetrahydropyrazolo[1,5-a]pyridin-3-yl)imidazo[1,2-b]pyridazin-2-yl) isonicotinamide], for which the IC50 on CK1δ stood at 0.5 nM; at CK1ϵ, 3.9 nM.

Turning to `CC1(NC(=O)N2CCn3nc(-c4ccc(F)cc4)c(-c4ccc5nc(NC(=O)c6ccnc(F)c6)cn5n4)c3C2)CC1` [Example 52, 3-(2-(2-Fluoroisonicotinamido)imidazo[1,2-b]pyridazin-6-yl)-2-(4-fluorophenyl)-N-(1-methylcyclopropyl)-6,7-dihydropyrazolo[1,5-a] pyrazine-5(4H)-carboxamide], the IC50 against CK1δ came out at 0.9 nM; on CK1ϵ, 7.7 nM.

As for `O=C(Nc1cn2nc(-c3c(-c4ccc(F)cc4)nn4c3CN(CC(F)F)CC4)ccc2n1)c1ccnc(F)c1` [Example 32, N-(6-(5-(2,2-Difluoroethyl)-2-(4-fluorophenyl)-4,5,6,7-tetrahydropyrazolo[1,5-a]pyrazin-3-yl)imidazo[1,2-b]pyridazin-2-yl)-2-fluoroisonicotinamide], the IC50 on CK1δ came out at 0.3 nM; at CK1ϵ, 1.5 nM.

For the compound `O=C(Nc1cn2nc(-c3c(-c4ccc(F)cc4)nn4c3COCC4)ccc2n1)c1ccnc(F)c1` [Example 53, 2-Fluoro-N-(6-(2-(4-fluorophenyl)-6,7-dihydro-4H-pyrazolo[5,1-c][1,4]oxazin-3-yl)imidazo[1,2-b]pyridazin-2-yl)isonicotinamide], the half-inhibitory concentration (IC50) at CK1δ was determined as 0.4 nM; on CK1ϵ, 4.1 nM.

Take `O=C(Nc1cn2nc(-c3c(-c4ccc(F)cc4)nn4c3CN(C(=O)c3ccc(F)c(F)c3)CC4)ccc2n1)c1ccnc(F)c1` [Example 18, N-(6-(5-(3,4-Difluorobenzoyl)-2-(4-fluorophenyl)-4,5,6,7-tetrahydropyrazolo[1,5-a]pyrazin-3-yl)imidazo[1,2-b]pyridazin-2-yl)-2-fluoroisonicotinamide]: the concentration for half-maximal inhibition (IC50) amounted to 0.5 nM on CK1δ and 5.6 nM at CK1ϵ.

`O=C(Nc1cn2nc(-c3c(-c4ccc(F)cc4)nn4c3CN(S(=O)(=O)c3cccc(F)c3)CC4)ccc2n1)c1ccnc(F)c1` [Example 38, 2-Fluoro-N-(6-(2-(4-fluorophenyl)-5-((3-fluorophenyl)sulfonyl)-4,5,6,7-tetrahydropyrazolo [1,5-a]pyrazin-3-yl)imidazo [1,2-b]pyridazin-2-yl) isonicotinamide]: the results for the IC50 against CK1δ and on CK1ϵ were 0.3 nM and 4.9 nM, respectively.

As for `O=C(Nc1cn2nc(-c3c(-c4ccc(F)cc4)nn4c3CN(C(=O)c3cccnc3)CC4)ccc2n1)c1ccnc(F)c1` [Example 21, 2-Fluoro-N-(6-(2-(4-fluorophenyl)-5-nicotinoyl-4,5,6,7-tetrahydropyrazolo[1,5-a]pyrazin-3-yl)imidazo[1,2-b]pyridazin-2-yl) isonicotinamide], the IC50 at CK1δ worked out at 0.2 nM; at CK1ϵ, 3 nM.

The values are drawn from patent publication US9956220B2, “Imidazo-pyridazine derivatives as casein kinase 1 δ/ϵ inhibitors” (Bristol-Myers Squibb Company, priority 2014, dated 2018).
